According to PubChem BioAssay (NCI):
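A five-concentration, 48-hour dose response in 96-well plates underlies each endpoint, interpolated linearly between surrounding concentrations. GI50 marks 50% less growth. The concentration for full growth arrest is given as TGI.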

Tests used:
Assay in all cases: inhibition of tumour cell growth, NCI panel, 48 h; in the data active = GI50 below about 0.43 µM; inactive = the rest
SW-620 colon = system: SW-620 colon
CCRF-CEM leukemia = system: CCRF-CEM leukemia
PC-3 prostate = system: PC-3 prostate
HCT-15 colon = system: HCT-15 colon
UACC-257 melanoma = system: UACC-257 melanoma
NCI-H23 lung = system: NCI-H23 lung
SF-295 CNS = system: SF-295 CNS
HOP-92 NSCLC = system: HOP-92 NSCLC
KM12 colon = system: KM12 colon
SK-OV-3 ovarian = system: SK-OV-3 ovarian
MOLT-4 leukemia = system: MOLT-4 leukemia
786-0 renal = system: 786-0 renal
MDA-MB-435 = system: MDA-MB-435
EKVX NSCLC = system: EKVX NSCLC
COLO 205 colon = system: COLO 205 colon
HT29 colon = system: HT29 colon
CAKI-1 renal = system: CAKI-1 renal
DU-145 prostate = system: DU-145 prostate
A498 renal = system: A498 renal
SR leukemia = system: SR leukemia
M14 melanoma = system: M14 melanoma
HS 578T breast = system: HS 578T breast
IGROV1 ovarian = system: IGROV1 ovarian
OVCAR-3 ovarian = system: OVCAR-3 ovarian
NCI-H460 lung = system: NCI-H460 lung
OVCAR-8 ovarian = system: OVCAR-8 ovarian
ACHN renal = system: ACHN renal
HCT-116 colon = system: HCT-116 colon
SK-MEL-28 melanoma = system: SK-MEL-28 melanoma
SK-MEL-5 melanoma = system: SK-MEL-5 melanoma
NCI-H226 lung = system: NCI-H226 lung
RPMI-8226 leukemia = system: RPMI-8226 leukemia
K-562 leukemia = system: K-562 leukemia
NCI/ADR-RES ovarian = system: NCI/ADR-RES ovarian
SNB-19 CNS = system: SNB-19 CNS
OVCAR-5 ovarian = system: OVCAR-5 ovarian
OVCAR-4 ovarian = system: OVCAR-4 ovarian
MALME-3M melanoma = system: MALME-3M melanoma
TK-10 renal = system: TK-10 renal
LOX IMVI melanoma = system: LOX IMVI melanoma
HOP-62 NSCLC = system: HOP-62 NSCLC

CCN(CC)Cc1cc(Nc2ccnc3cc(Cl)ccc23)cc(-c2ccc(Cl)cc2)c1O
4.85 µM: TGI (UACC-257 melanoma)
inactive: GI50 (SW-620 colon) 0.628 µM | GI50 (CCRF-CEM leukemia) 0.999 µM | GI50 (PC-3 prostate) 0.771 µM | GI50 (HCT-15 colon) 0.577 µM | GI50 (UACC-257 melanoma) 1.29 µM | GI50 (NCI-H23 lung) 0.704 µM | GI50 (SF-295 CNS) 1.39 µM | GI50 (HOP-92 NSCLC) 0.434 µM | GI50 (KM12 colon) 3.08 µM | GI50 (SK-OV-3 ovarian) 3.89 µM | GI50 (MOLT-4 leukemia) 0.485 µM | GI50 (786-0 renal) 1.84 µM | GI50 (MDA-MB-435) 0.989 µM | GI50 (EKVX NSCLC) 0.879 µM | GI50 (COLO 205 colon) 3.05 µM | GI50 (HT29 colon) 1.88 µM | GI50 (CAKI-1 renal) 0.907 µM
> 100 µM: TGI (SW-620 colon) | TGI (CCRF-CEM leukemia) | TGI (PC-3 prostate) | TGI (HCT-15 colon) | TGI (NCI-H23 lung) | TGI (SF-295 CNS) | TGI (KM12 colon) | TGI (SK-OV-3 ovarian) | TGI (MOLT-4 leukemia) | TGI (786-0 renal) | TGI (MDA-MB-435) | TGI (EKVX NSCLC) | TGI (COLO 205 colon) | TGI (HT29 colon) | TGI (CAKI-1 renal)
3.2 µM: TGI (HOP-92 NSCLC)

COc1ccc(C[C@H]2COC(=O)[C@@H]2Cc2ccc(O)cc2)cc1OC
> 100 µM: TGI (SW-620 colon) | TGI (DU-145 prostate) | TGI (A498 renal) | TGI (SR leukemia) | TGI (M14 melanoma) | TGI (CCRF-CEM leukemia) | TGI (HS 578T breast) | TGI (IGROV1 ovarian) | TGI (OVCAR-3 ovarian) | TGI (NCI-H460 lung) | TGI (UACC-257 melanoma) | TGI (OVCAR-8 ovarian) | TGI (NCI-H23 lung) | TGI (ACHN renal) | TGI (SF-295 CNS) | TGI (HOP-92 NSCLC) | TGI (HCT-116 colon) | TGI (SK-MEL-28 melanoma) | TGI (SK-MEL-5 melanoma) | TGI (NCI-H226 lung) | TGI (RPMI-8226 leukemia) | TGI (K-562 leukemia) | TGI (NCI/ADR-RES ovarian) | TGI (MOLT-4 leukemia) | TGI (786-0 renal) | TGI (SNB-19 CNS) | TGI (EKVX NSCLC) | TGI (OVCAR-5 ovarian) | TGI (OVCAR-4 ovarian) | TGI (MALME-3M melanoma) | TGI (HT29 colon) | TGI (TK-10 renal) | TGI (LOX IMVI melanoma) | TGI (HOP-62 NSCLC)
